Assay results taken from patent US11801256B2, “Antidepressant-psilocybin co-treatment to assist psychotherapy” (Universitätsspital Basel, priority 2021, dated 2023).

Key:
[1] = Plasma drug concentrations and pharmacokinetic analyses; type: in vivo, human; conditions: for elimination half-life / mean time to peak concentrations: psilocin glucuronide after 25 mg psilocybin
Description: The blood samples were immediately centrifuged, and the plasma was subsequently stored at −80° C. until analysis.
This allows to determine the concentrations of unconjugated psilocin and of psilocin glucuronide which corresponds to the difference between samples that were incubated with and without glucuronidase.

healthy subjects [2] = assay: QTc time; type: in vivo, human; conditions: 2.5 hours after psilocybin administration compared with 1 hour before
From the text: Exclusion criteria: Chronic or acute medical condition, including a history of seizures. Current or previous major psychiatric disorder (e.g. psychotic disorders, mania/hypomania, anxiety disorders, and substance abuse). Psychotic disorder in first-degree relatives, not including psychotic disorders secondary to an apparent medical reason, e.g. brain injury, dementia, or lesions of the brain. Illicit substance use (with the exception of cannabis) more than 10 times or any time within the previous two months. History of an angle closure glaucoma. Pregnant or nursing women. Participation in another clinical trial (currently or within the last 30 days). […] A corrected QT time (QTc), calculated by Bazett's formula, of over 450 milliseconds in males and over 470 milliseconds in females. Tobacco smoking (>10 cigarettes/day). Consumption of alcoholic drinks (>10 drinks/week). Bodyweight <45 kg.

healthy subjects [3] = assay: Subjective effects, visual analog scales (VAS), clinical study; type: in vivo, human; conditions: 25 mg psilocybin
Description: (§1) Treatment order was random and counterbalanced.
Study procedures: Subjects took part in a 2-hour screening session, two 9.5-hour test sessions where the psilocybin was administered and a 1-hour end-of-study visit. The subjects were informed about the study both verbally and by the approved written consent form regarding the altered state of consciousness, the study procedures and associated risks. The investigator and the subject both personally signed and dated the consent form as confirmation of consent. Subjects were screened using a semi-structured clinical interview for DSM-IV (Diagnostic and Statistical Manual Version 4) (Wittchen et al., 1997) to exclude those with a personal or family (first-degree relative) axis I major psychiatric disorder (acute or past) or a history of illicit drug dependence. Axis I major psychiatric disorders included also addiction disorders. The sessions were conducted in a calm standard hospital room. Only one research subject and one investigator were present during the test sessions. The test sessions began at 9 AM. The subjects then underwent baseline measurements. […] Psilocybin was administered at 11:00 AM. The outcome measures were repeatedly assessed for 7 hours. The subjects were under constant supervision by an investigator until 6 PM. Thus, the subjects were never alone during the 7 hours after drug administration. The subjects were sent home at 6:30 PM.
Subjective Effects Questionnaire (Visual Analog Scales, VAS): VAS was repeatedly used to assess subjective alterations in consciousness over time. Single scales were presented as 100 mm horizontal lines marked with “not at all” on the left and “extremely” on the right. The following VAS items were used: “any drug effect”, “good drug effect”, “bad drug effect”, “drug liking”, “drug high”, “stimulated”, “fear”, “happy”, “content”, “trust”, “talkative”, “perception of time”, “open”, “concentration”, “speed of thinking”, “feeling close to others”, “wanting to be hugged”, “wanting to hug someone”, “desire to be alone”, “desire to be with others”, and “ego dissolution”. The VASs were presented as 100-mm horizontal lines (0-100%), marked from “not at all” on the left to “extremely” on the right. Some VASs were bidirectional (±50%). Marked from “not at all” on the left (−50), to “normal” in the middle (0), to “extremely” on the right (+50).
The criterion for significance was p<0.05.

healthy subjects [4] = assay: Adverse effects (list of complaints) and adverse events; type: in vivo, human
Description: as §1
Adverse effects (list of complaints): The list of complaints (LC) consists of 66 items offering a global score measuring physical and general discomfort (Zerssen, 1976). This scale yields a total adverse effects score and reliably measures physical and general discomfort. The LC list was administered 7 hours after administration of the drug with reference to complaints throughout the entire session.

healthy subjects [5] = assay: Autonomic measures (blood pressure, heart rate, body temperature, pupil size); conditions: 25 mg psilocybin, healthy subjects
Description: Study design: A double-blind, cross-over design was used with two conditions. […] 2) Pretreatment with placebo for 14 days with the last administration on the study day and administration of 25 mg psilocybin 2 hours later. Treatment order was random and counterbalanced. Between the 14 days pretreatment and the study day, there were at least 2 days washout until the next pretreatment phase began.
Autonomic measures: Blood pressure, heart rate, and body temperature were recorded at baseline and repeatedly throughout the session. Blood pressure (systolic and diastolic) and heart rate were measured with an automatic oscillometric device. Body temperature was measured with an ear thermometer as previously described in detail (Hysek et al., 2010). Measures were taken before and at 0, 0.25, 0.5, 0.75, 1, 1.5, 2, 2.5, 3, 4, 5, 6 and 7 hours after psilocybin administration.
Data analysis: Peak (Emax and/or Emin) or peak change from baseline (ΔEmax) values were determined for repeated measures. The values were then analyzed using paired T-tests using Statistica 12 software (StatSoft, Tulsa, OK, USA). The criterion for significance was p<0.05.

[6] = after psilocybin, after escitalopram pretreatment
[7] = after psilocybin, after placebo pretreatment
[8] = after escitalopram pretreatment

Compound: O=C(O)Cc1c[nH]c2cccc(O)c12 [4-HIAA, 4-hydroxyindole-3-acetic acid]
- increase in metabolite concentrations over time ([1]; 4-HIAA compared to the glucuronide): faster

Compound: CN(C)CCc1c[nH]c2cccc(OP(=O)(O)O)c12 [Psilocybin, psilocybin]
- QTc times (healthy subjects [2]): did not increase
- bad drug effects (healthy subjects [3]; healthy subjects): only moderate
- anxiety (healthy subjects [3]; healthy subjects (FIG. 6B)): only moderate
- type and amount of adverse events following psilocybin administration (healthy subjects [4]; after escitalopram and placebo pretreatment): comparable
- adverse aftereffects: abdominal bloating (healthy subjects [4]; [6]): one
- adverse aftereffects: flash backs (healthy subjects [4]; [6]): one
- adverse aftereffects: headaches (healthy subjects [4]; [6]): six
- adverse aftereffects: lack of energy (healthy subjects [4]; [6]): one
- adverse aftereffects: nausea (healthy subjects [4]; [6]): one
- adverse aftereffects: flash backs (healthy subjects [4]; [7]): one
- adverse aftereffects: headaches (healthy subjects [4]; [7]): six
- adverse aftereffects: nausea (healthy subjects [4]; [7]): one
- adverse aftereffects: vasovagal syncope (healthy subjects [4]; [7]): one
- body temperature (healthy subjects [5]): moderately increased
- diastolic blood pressure (healthy subjects [5]): moderately increased
- heart rate (healthy subjects [5]): changed only minimally
- pupil size (healthy subjects [5]): moderately increased
- rate-pressure product (healthy subjects [5]): moderately increased
- systolic blood pressure (healthy subjects [5]): moderately increased

Compound: CN(C)CCc1c[nH]c2cccc(O[C@@H]3O[C@H](C(=O)O)[C@@H](O)[C@H](O)[C@H]3O)c12 [psilocin glucuronide]
- elimination half-life [1, 8]: 5.2 h
- mean time to peak concentrations [1, 8]: 3.74 h
- elimination half-life ([1]; after escitalopram pretreatment, listed as Glucuronidated psilocin): 4.5 h
- elimination half-life ([1]; after placebo pretreatment): 4.5 h
- mean time to peak concentrations ([1]; after placebo pretreatment): 3.8 h
- elimination half-life ([1]; after placebo pretreatment, listed as Glucuronidated psilocin): 4.1 h
- mean time to peak concentrations ([1]; pretreatments not separated): 3.2 to 3.4 h

Compound: CN(C)CCc1c[nH]c2cccc(O)c12 [psilocin]
- metabolism of psilocin ([1]; after 25 mg psilocybin): metabolized to approximately similar extents to inactive 4-HIAA and psilocin-glucuronide
- half-life ([1]; human, plasma, oral, non-glucuronidated (nonconjugated) psilocin after 25 mg psilocybin, read-out: elimination half-life (converted)): 2 h
- mean time to maximal plasma concentration ([1]; non-glucuronidated (nonconjugated) psilocin after 25 mg psilocybin): 2 h
- conjugation (glucuronidation) in plasma ([1]; samples analyzed with and without glucuronidase): A large proportion of psilocin underwent glucuronidation
